Experimental data: patent publication US20020152479A1, “Car modulators: screening and treatment of hypercholesterolemia” (priority 2000, published 2002)
Like-named read-outs stand apart in the source and are kept apart here. Where no end group is shown, it is not given here. rhodamine = not defined here

Key:
[1] = target: T1, GST-CARα ligand binding domain fusion protein (Homo sapiens, UniProt Q14994); assay: Peptide sensor fluorescence polarization assay, GST-CARα ligand binding domain with rhodamine-[…] (SRC-1 peptide)
T1 construct: made in house; host or cells: E. coli
T1 sequence (Q14994 76-348 isoform Q14994-2): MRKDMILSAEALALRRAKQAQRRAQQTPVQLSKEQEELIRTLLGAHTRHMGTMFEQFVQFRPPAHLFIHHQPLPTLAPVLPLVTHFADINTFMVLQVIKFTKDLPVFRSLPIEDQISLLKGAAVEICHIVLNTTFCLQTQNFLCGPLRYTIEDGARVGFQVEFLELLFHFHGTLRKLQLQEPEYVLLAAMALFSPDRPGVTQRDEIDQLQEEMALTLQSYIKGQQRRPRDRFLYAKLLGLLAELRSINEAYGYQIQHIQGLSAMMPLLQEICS
Description: (§1) A portion of DNA encoding the ligand binding domain of CARα encoding amino acids 76 to 348 (GenBank Accession No. CAA83016) was subcloned into a glutathione S-transferase (GST) fusion protein expression vector (pGEX-2TK, Amersham-Pharmacia) to create a vector that encodes a fusion protein in which GST is fused to the amino terminus of the CAR ligand binding domain. The GST-CAR protein was expressed in E. coli and purified over a glutathione affinity column. The GST-CAR fusion protein was incubated with a rhodamine-labeled peptide derived from the receptor binding domain of the coactivator SRC-1, rhodamine-[…] (SEQ ID NO: 7) (see WO 99/27365). The fluorescence polarization was measured as described in WO 99/27365.
(§2) Using the compounds set out in Table 1, a peptide sensor assay was carried out using the method of Example 3. Fusion proteins encoding the ligand binding domain of CARα (GST-CARα; see Example 3) and CARβ (GST-CARβ) were used in the assay. A portion of the DNA for the ligand binding domain of CARβ (GenBank Accession No. AF009327) encoding amino acids 86 to 358 was subcloned into a glutathione S-transferase (GST) fusion protein expression vector (pGEX-2TK, Amersham-Pharmacia) to create a vector that encodes a fusion protein in which GST is fused to the amino terminus of the CARβ ligand binding domain (GST-CARβ). The GST-CARβ was purified using glutathione affinity chromatography.
(§3) The notation ND means not determined.

CAR = assay: RARE-luciferase reporter gene assay in CV-1 cells with increasing CAR expression plasmid (Example 4); type: cell-based; conditions: 10 μM compound, 24 h
CARα = target: T2, CARα (Homo sapiens, UniProt Q14994); type: cell-based
T2 construct: expressed in transfected cells; host or cells: CV-1 cells
T2 sequence (Q14994 1-348 isoform Q14994-2): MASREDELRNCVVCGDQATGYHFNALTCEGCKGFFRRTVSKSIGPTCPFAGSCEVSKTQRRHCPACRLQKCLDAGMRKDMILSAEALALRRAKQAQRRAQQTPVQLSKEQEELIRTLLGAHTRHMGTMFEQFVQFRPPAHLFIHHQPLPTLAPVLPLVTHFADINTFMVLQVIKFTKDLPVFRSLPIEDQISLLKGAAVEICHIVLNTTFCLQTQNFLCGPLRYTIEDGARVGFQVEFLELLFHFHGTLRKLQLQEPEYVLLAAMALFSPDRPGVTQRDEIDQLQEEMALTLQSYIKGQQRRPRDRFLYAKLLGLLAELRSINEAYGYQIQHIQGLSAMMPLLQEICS

[2] = target: T3, GST-CARβ ligand binding domain fusion protein (Mus musculus, UniProt O35627); assay: Peptide sensor fluorescence polarization assay, GST-CARβ ligand binding domain; conditions: half-maximal concentration of stimulation of peptide sensor assay signal
T3 construct: encoding amino acids 86 to 358 was subcloned; made in house
T3 sequence (O35627 86-358): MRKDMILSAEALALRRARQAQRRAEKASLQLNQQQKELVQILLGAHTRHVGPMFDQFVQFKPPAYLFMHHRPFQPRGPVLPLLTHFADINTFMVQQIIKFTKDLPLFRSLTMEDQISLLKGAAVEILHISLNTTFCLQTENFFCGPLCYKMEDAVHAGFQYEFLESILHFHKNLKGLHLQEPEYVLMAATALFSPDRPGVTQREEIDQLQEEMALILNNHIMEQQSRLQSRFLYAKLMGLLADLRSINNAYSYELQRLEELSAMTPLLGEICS
Description: as §1, §2, §3

CARβ = target: T4, CARβ (Mus musculus, UniProt O35627); type: cell-based
T4 construct: expressed in transfected cells; host or cells: CV-1 cells
T4 sequence (O35627 1-358): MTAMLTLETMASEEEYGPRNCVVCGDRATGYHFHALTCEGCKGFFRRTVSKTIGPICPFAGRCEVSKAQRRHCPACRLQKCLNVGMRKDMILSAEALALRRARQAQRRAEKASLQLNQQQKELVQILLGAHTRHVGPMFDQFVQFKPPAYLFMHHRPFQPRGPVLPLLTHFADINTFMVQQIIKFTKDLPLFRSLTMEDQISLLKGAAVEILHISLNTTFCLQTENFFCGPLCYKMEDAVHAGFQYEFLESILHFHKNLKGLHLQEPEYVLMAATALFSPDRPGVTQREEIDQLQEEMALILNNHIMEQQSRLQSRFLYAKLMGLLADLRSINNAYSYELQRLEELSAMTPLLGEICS

[3] = Total plasma cholesterol after TCPOBOP in CAR wild-type, heterozygous and knockout mice; type: in vivo; conditions: single i.p. 3 mg/kg, four days after dosing
CYP2B = conditions: mouse, in vivo, ip, cited from earlier work
mouse CAR = target: T5, mouse CAR (Mus musculus, UniProt O35627); conditions: Tzameli et al. (2000); read-out: EC50, upregulation of CAR-mediated transcription; cited from earlier work
T5 sequence (O35627 1-358): T4 sequence (O35627 1-358)

[4] = Plasma cholesterol, HDL cholesterol and triglycerides in wild-type C57B1/6 mice; type: in vivo; conditions: single i.p. 3 mg/kg, four days after dosing
[5] = Lipoprotein particle composition (LDL/VLDL) by electrophoresis of plasma, wild-type and CAR knockout mice; type: in vivo; conditions: single i.p. 3 mg/kg, four days after dosing
[6] = target: GST-CARβ ligand binding domain fusion protein (mouse, UniProt P08515 1-218 = GST; O35627 86-358); assay: fluorescence polarization peptide sensor assay, with small-molecule agonists
[7] = half-maximal concentration of stimulation of peptide sensor assay signal, read-out: GST-CARα EC50

C[C@]12CC[C@@H](O)C[C@@H]1CC[C@@H]1[C@@H]2CC[C@]2(C)C=CC[C@@H]12 [5α-androst-16-en-3α-ol]
IC50 ([1]; in the presence of 5 μM 5β-pregnan-3,20-dione, read-out: IC50, decrease of fluorescence polarization seen with 5β-pregnan-3,20-dione): 530 nM

C[C@@]12CCC[C@H]1[C@@H]1CC[C@H]3C[C@H](O)CC[C@]3(C)[C@H]1CC2 [5α-androstane-3α-ol]
Transcription of the luciferase reporter gene (normalized luciferase activity) (CAR): decreased

CC(=O)[C@H]1CC[C@H]2[C@@H]3CC[C@@H]4CC(=O)CC[C@]4(C)[C@H]3CC[C@]12C [5β-pregnan-3,20-dione]
Transcription of the luciferase reporter gene (normalized luciferase activity) (CAR): increased transcription
EC50 [1]: 2500 nM
Fluorescence polarization between sensor peptide and GST-CAR [1]: increased

CCOC(=O)C(Nc1ccc(OCc2ccccc2)cc1)c1ccccc1 (centres unmarked) [Compound T0037566]
CMV-CARα, fold increase in normalized luciferase activity over DMSO control (CARα): 1.96
EC50 [2]: 99.1 nM
CMV-CARβ, fold increase in normalized luciferase activity over DMSO control (CARβ): 2.14
EC50 [1, 7]: 221 nM

COc1ccc(C2CC(c3ccc(Cl)cc3)=NN2c2ccccc2Cl)c(OC)c1 (centres unmarked) [Compound T0318784]
CMV-CARα, fold increase in normalized luciferase activity over DMSO control (CARα): 1.78
EC50 [2]: 96.7 nM
CMV-CARβ, fold increase in normalized luciferase activity over DMSO control (CARβ): 3.87
EC50 [1, 7]: 91.2 nM

Clc1ccc(CSCc2cc(Sc3c(Cl)cccc3Cl)nc(-c3ccccn3)n2)cc1 [Compound T0434523]
CMV-CARα, fold increase in normalized luciferase activity over DMSO control (CARα): 2.17
EC50 [2]: 52.2 nM
CMV-CARβ, fold increase in normalized luciferase activity over DMSO control (CARβ): 1.29
EC50 [1, 7]: 79.7 nM

CCN(CC)c1ccc(C2C3=C(CC(C)(C)CC3=O)OC3=C2C(=O)CC(C)(C)C3)c(OCc2ccc(Cl)cc2Cl)c1 [Compound T0438248]
CMV-CARα, fold increase in normalized luciferase activity over DMSO control (CARα): 2.92
EC50 [2]: 65.4 nM
CMV-CARβ, fold increase in normalized luciferase activity over DMSO control (CARβ): 0.96
EC50 [1, 7]: 5.25 nM

Clc1cnc(Oc2ccc(Oc3ncc(Cl)cc3Cl)cc2)c(Cl)c1 [TCPOBOP, 1,4-bis[2-(3,5-dichloropyridyloxy)]benzene]
EC50 [2]: 60 nM
Plasma cholesterol levels, CAR knockout mice [3]: no effect
Reduction in total cholesterol, female heterozygous CAR mice (+/−) [3]: 60%
Total plasma cholesterol, mice with one functional CAR gene (+/−) [3]: decreased total plasma cholesterol
Total plasma cholesterol, wild-type littermates (+/+) [3]: decreased total plasma cholesterol
Duration of CYP2B expression induction (CYP2B; 3 mg/kg): over 20 weeks
Dose inducing half maximal expression of CYP2B (CYP2B): 0.066 mg/kg
EC50 (mouse CAR): 20 nM
Reduction in HDL [4]: 40%
Reduction in total plasma cholesterol [4]: 40%
Reduction in triglyceride levels [4]: 15-30%
Plasma levels of LDL/VLDL, CAR deficient (knockout) mice [5]: unaffected
Plasma levels of LDL/VLDL, wild-type mice [5]: significant reduction

B1: rhodamine-ILRKLLQE (rhodamine-labeled peptide derived from the receptor binding domain of the coactivator SRC-1) (peptide)
peptide: rhodamine-ILRKLLQE
modifications: reading uncertain; also: printed as rhodamine-ILRKLLQE
notes: Labeled 8-mer used as the fluorescence polarization sensor; also called sensor peptide
binding result [6]: binds
